# Test results from publication PMC4961418, “A Selective Irreversible Inhibitor of Furin Does Not Prevent Pseudomonas Aeruginosa Exotoxin A-Induced Airway Epithelial Cytotoxicity” (PLoS ONE, 2016).
# Side chains are listed from the residue outwards. Peptide text beside a SMILES is read from it. * marks the point of attachment. Biotin = O=C1N[C@H]2[C@H](CS[C@H]2CCCCC(=O)*)N1; X1 = N=C(N)NCCCC(N*)P(=O)(Oc1ccccc1)Oc1ccccc1; Palmitoyl = CCCCCCCCCCCCCCCC(=O)*; Ahx = NCCCCCC(=O)O
# Legend:
# Format in all cases: biochemical
# [1] = molecular target: T1, neutrophil elastase (Homo sapiens, UniProt P08246); assay: Fluorogenic protease activity assay, neutrophil elastase; conditions: 10 μM inhibitor, MeO-Suc-Ala-Ala-Pro-Val-NH2Mec 50 μM, N = 3
# T1 construct: purchased Merck Millipore
# T1 sequence (P08246 30-267): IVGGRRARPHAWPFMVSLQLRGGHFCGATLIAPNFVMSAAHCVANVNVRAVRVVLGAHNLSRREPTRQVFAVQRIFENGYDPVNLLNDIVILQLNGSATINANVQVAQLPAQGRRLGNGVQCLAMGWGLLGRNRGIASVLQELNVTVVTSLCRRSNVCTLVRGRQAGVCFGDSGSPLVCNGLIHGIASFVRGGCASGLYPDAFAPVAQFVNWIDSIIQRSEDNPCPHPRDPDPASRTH
# Text: (§1) Recombinant human enzymes were sourced as follows: furin and matriptase (R&D Systems); prostasin (Sino Biological); trypsin and chymotrypsin (Sigma-Aldrich); factor Xa and neutrophil elastase (Merck Millipore) and proteinase-3 and cathepsin G (Elastin Products, Missouri). Fluorogenic substrates were sourced as follows: p-Glu-Arg-Thr-Lys-Arg-NH2Mec and Boc-Gln-Ala-Arg-NH2Mec (R&D Systems); Boc-Ile-Glu-Gly-Arg-NH2Mec (Bachem); Z-Gly-Gly-Arg-NH2Mec, MeOSuc-Ala-Ala-Pro-Val-NH2Mec and Suc-Ala-Ala-Pro-Phe-NH2Mec (Sigma-Aldrich). All chemicals and reagents for the synthesis of QUB-F1 were supplied by Sigma-Aldrich unless otherwise indicated. Fmoc-Lys(Boc)-SASRIN resin was sourced from Bachem. Fmoc-protected amino acids and HCTU were supplied by Merck Millipore.
# (§2) Recombinant protease activities were assessed using the cognate fluorogenic substrates (final concentration 50 μM) as follows: trypsin (Z-Gly-Gly-Arg-NH2Mec), prostasin and matriptase (Boc-Gln-Ala-Arg-NH2Mec), factor Xa (Boc-Ile-Glu-Gly-Arg-NH2Mec), neutrophil elastase and proteinase 3 (MeO-Suc-Ala-Ala-Pro-Val-NH2Mec), chymotrypsin and cathepsin G (Suc-Ala-Ala-Pro-Phe-NH2Mec). The rate of substrate hydrolysis in the presence or absence of furin inhibitors was assessed by continuous recording at λex 360 nm, λem 480 nm, over a period of 60 minutes using a FLUOstar Optima microplate reader (BMG Labtech). […]
# [2] = molecular target: T2, prostasin (Homo sapiens, UniProt Q16651); assay: Fluorogenic protease activity assay, prostasin; conditions: 10 μM inhibitor, Boc-Gln-Ala-Arg-NH2Mec 50 μM, N = 3
# T2 construct: purchased Sino Biological
# T2 sequence (Q16651 33-343): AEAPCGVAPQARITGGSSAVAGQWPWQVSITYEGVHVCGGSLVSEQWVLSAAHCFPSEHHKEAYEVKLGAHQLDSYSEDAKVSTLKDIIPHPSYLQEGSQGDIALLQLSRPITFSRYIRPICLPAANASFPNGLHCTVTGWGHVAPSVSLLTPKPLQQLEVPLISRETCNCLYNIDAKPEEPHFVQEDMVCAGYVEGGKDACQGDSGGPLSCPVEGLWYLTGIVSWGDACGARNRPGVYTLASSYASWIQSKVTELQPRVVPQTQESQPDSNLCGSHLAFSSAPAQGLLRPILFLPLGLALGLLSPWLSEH
# Text: as §1, §2
# [3] = molecular target: T3, proteinase 3 (Homo sapiens, UniProt P24158); assay: Fluorogenic protease activity assay, proteinase 3; conditions: 10 μM inhibitor, MeO-Suc-Ala-Ala-Pro-Val-NH2Mec 50 μM, N = 3
# T3 construct: purchased Elastin Products, Missouri
# T3 sequence (P24158 28-256): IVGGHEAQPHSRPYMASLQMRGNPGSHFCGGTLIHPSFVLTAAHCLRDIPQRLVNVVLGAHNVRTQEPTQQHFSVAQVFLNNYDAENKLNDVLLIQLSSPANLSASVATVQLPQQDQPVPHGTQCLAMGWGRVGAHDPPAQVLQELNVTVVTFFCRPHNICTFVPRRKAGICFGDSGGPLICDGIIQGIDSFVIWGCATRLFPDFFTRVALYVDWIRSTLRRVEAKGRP
# Text: as §1, §2
compound,measurement,setting,value
"CCCCCCCCCCCCCCCC(=O)N[C@@H](CCCCNC(=O)CCCCCNC(=O)CCCC[C@@H]1SC[C@@H]2NC(=O)N[C@@H]21)C(=O)N[C@@H](CCCNC(=N)N)C(=O)N[C@H](C(=O)N[C@@H](CCCCN)C(=O)NC(CCCNC(=N)N)P(=O)(Oc1ccccc1)Oc1ccccc1)C(C)C (stereo partly drawn) [QUB-F1, N^α-Pal-N^ω-(Biotinyl-Ahx)-Lys-RVKR^P(OPh)2] (Palmitoyl-K([Ahx-Biotin])RVK-X1)",inhibition of neutrophil elastase,[1],Neither compound was found to inhibit
same,inhibition of prostasin,[2],did not
same,inhibition of proteinase 3,[3],Neither compound was found to inhibit
